# Reference: US20230233695A1, “MITHRAMYCIN A NANOPARTICLES FOR CANCER TREATMENT” (priority 2021, published 2023)
# Values joined by “and” are separate entries in the source; they are usually repeats but may differ in a detail not shown here. Equal entries are not always repeated. Where two headings read alike, the source gives them in different places.
# How the values were obtained:
# Female C57BL/6J mice = assay: In vivo toxicity: hematology; set-up: lymphocytes (% WBC) / granulocytes (% WBC): concentration or dose not given beside the values
# Method: In vivo toxicity of MithA and MANP. Cohorts of n=6-7 C57BL/6J females, 8-10 wko were randomized to receive either intravenous or intraperitoneal administration of saline control vehicle, blank polymer, MithA, or MANP as described in TABLES 2A and 2B. Body weight loss exceeding 20%, death, morbidity, changes in behavior, and any other sign of local or systemic toxicity were recorded.
# For hematology, blood was collected 24 h after the last dose by venipuncture of the tail or mandibular veins. Blood (>100 uL) was transferred to Sarstedt EDTA tubes and held on ice until differential complete blood count was performed using Abaxis VetScan HM2 hematology analyzer (Union City, Calif.). Samples were analyzed within 8 hours of collection. Giemsa-stained blood smears were also obtained for manual differentiation of granulocytes, as the instrument is not able to discriminate neutrophils, eosinophils, or basophils due to inefficient lysis of mouse granulocytes by this system.
# HepG2 = assay: XTT cell viability assay, HepG2; type: cell-based, human
# Method: (§1) Cell viability assays. For viability assays, four EWS:Fli1 fusion tumor cell lines (RD-ES, SK-ES-1, A673, and TC-71), one human embryonic kidney cell line (293.T), one ES tumor cell line with ERG fusion (CHLA-25), one fetal kidney cell line (HEK293.T), one hepatoblastoma cell line (HepG2), one chronic myeloid leukemia (MEG-01), and one acute monocytic leukemia (THP-1) cell line were plated at 5000 cells/well in 100 μL growth media in 96-well plates. After overnight incubation, 50 μL of growth media containing mithramycin A (MithA) (Cayman Chemical, Ann Arbor, Mi. Item Number 11434) or boronic acid-conjugated nano-MithA (MANP) (0.12 nM to 500 nM, final) or dimethyl sulfoxide (DMSO, 0.01% v/v) vehicle was added to the wells, and cell viability assays were performed 72 hours later. The cells were incubated with the activated-XTT solution (mixture of 2% final concentration of activation reagent with the XTT reagent) from ATCC (Catalog Number 30-1011K, XTT Cell Proliferation Assay Kit) for 3 hours prior to recording absorbance. The cell viability was determined by measuring the absorbance wavelength at 475 nm and reference wavelength at 650 nm on an Infinite M200 plate reader (Tecan Group, Ltd. Mannedorf, Switzerland). […]
# Rad51 = assay: RT-qPCR, Rad51 mRNA expression; type: cell-based; details: 10 nM, 3 cell lines tested
# Method: Assessment of mRNA expression by RT-qPCR. Total RNA was extracted from EWS:Fli1^+ cell cultures (TC-71, A673, and RD-ES) exposed to 10 nM of MithA/MANP (final concentration) or DMSO, (0.01% v/v) vehicle and blank polymer for 24 hours by the RNeasy technique with RNeasy columns with on-column DNAse I digestion (Qiagen, Valencia, Calif.) according to the manufacturer's instructions. The concentration and purity of the extracts were determined by UV absorbance at 230/260/280/320 nm wavelengths using a Tecan Infinite M200 spectrophotometer. Template cDNA was synthesized from […] of RNA extract by reverse-transcription using the Quantitect RT kit (Qiagen). Oligonucleotide primer sequences and more detailed information described in Supplemental Table S4). RT-PCR was performed using Quantitect SYBR-green qPCR reagents in a Mastercycler ep Realplex2 instrument (Eppendorf AG, Hamburg, Germany). […] Relative quantification of mRNA expression between MithA/MANP or vehicle/blank polymer treated cells were semi-quantitatively calculated by comparing the average threshold cycle (Ct) for the treated samples to the average Ct for untreated samples (Vehicle or blank polymer. Amplification efficiency was determined for each primer set, and the Pfaffl equation to determine relative fold change in gene expression. Beta-actin was used as the housekeeping gene for normalization.
# TC-71 = assay: XTT cell viability assay, TC-71; type: cell-based; details: TC-71, 72 h, read-out: Viability IC50
# Method: as §1
# [1] = human, in vivo; cited from earlier work
# SK-ES-1 = assay: XTT cell viability assay, SK-ES-1; type: cell-based; details: Homo sapiens, SK-ES1, 72 h, read-out: Viability IC50
# Method: as §1
# HEK293.T = assay: XTT cell viability assay, HEK293.T; type: cell-based; details: Homo sapiens, HEK-293T, 72 h, read-out: Viability IC50
# Method: as §1
# [2] = cited from earlier work
# NR0B1 = assay: Western blotting, NR0B1 protein expression; type: cell-based; details: 10 nM, 24 hours; compared with saline control, p<0.0471
# Method: Western Blotting. Expression Western blotting was performed to assess the expression of NR0B1 (EWS:Fli1 target gene) and Rad 51 (DNA homologous recombination repair HRR) at protein level as provisory described in Lin et al 2021. Briefly, cells were grown to ˜70% confluence and exposed to 10 nM of MithA/MANP (final concentration) or DMSO, (0.01% v/v) vehicle and blank polymer for 24 hours. Lysates were collected in cold RIPA lysis buffer supplemented with 1×HALT protease/phosphatase inhibitor cocktail (Thermo Scientific) and clarified by centrifugation. Protein concentration of the supernatant was determined by BCA assay (Thermo Scientific), and then diluted in 4× loading buffer (Licor Inc., Lincoln, Nebr.) containing 1× NuPAGE reducing agent (Life Technologies). Prior to electrophoresis, samples were denatured by incubating at 70° C. for 10 minutes. Samples were then resolved (25 μg/lane) on 4-20% gradient SDS-PAGE gels and transferred to low-fluorescence PVDF membranes (Bio-Rad Inc., Hercules Calif.). Transfer efficiency and equivalence of total protein load was assessed using Revert 700 Total Protein Stain kits (Licor Inc). Membranes were then washed, blocked in Odyssey Blocking Buffer (PBS) (Licor Inc), and incubated with primary antibodies (Table S4.3 above) overnight at 4° C. diluted in blocking buffer.
# [3] = 5x2 mg/kg i.v., in comparison to saline vehicle
structure (smiles),measurement,setting,value
"CO[C@H](C(=O)[C@@H](O)[C@@H](C)O)[C@@H]1Cc2cc3cc(O[C@H]4C[C@@H](O[C@H]5C[C@@H](O)[C@H](O)[C@@H](C)O5)[C@H](O)[C@@H](C)O4)c(C)c(O)c3c(O)c2C(=O)[C@H]1O[C@H]1C[C@@H](O[C@H]2C[C@@H](O[C@H]3C[C@](C)(O)[C@H](O)[C@@H](C)O3)[C@@H](O)[C@@H](C)O2)[C@H](O)[C@@H](C)O1 [MithA, (2S,3S)-2-[(2S,4R,5R,6R)-4-[(2S,4R,5S,6R)-4-[(2S,4S,5R,6R)-4,5-dihydroxy-4,6-dimethyloxan-2-yl]oxy-5-hydroxy-6-methyloxan-2-yl]oxy-5-hydroxy-6-methyloxan-2-yl]oxy-3-[(1 S,3S,4R)-3,4-dihydroxy-1-methoxy-2-oxopentyl]-6-[(2S,4R,5R,6R)-4-[(2S,4R,5S,6R)-4,5-dihydroxy-6-methyloxan-2-yl]oxy-5-hydroxy-6-methyloxan-2-yl]oxy-8,9-dihydroxy-7-methyl-3,4-dihydro-2H-anthracen-1-one]",thrombocytopenia / platelet dysfunction,Female C57BL/6J mice; 5x2 mg/kg (eq.) i.v.,displayed thrombocytopenia
same,decrease of plateletcrit (%),Female C57BL/6J mice; [3],3.4 fold
same,decrease of total platelet count,Female C57BL/6J mice; [3],3.6 fold
same,red blood cell (RBC) parameters,Female C57BL/6J mice; 5x4 mg/kg i.p.,no significant changes
same,total white blood cell (WBC) count,"Female C57BL/6J mice; 5x4 mg/kg i.p., relative to controls",no significant difference
same,granulocytes (% Gran),"Female C57BL/6J mice; 5x4 mg/kg i.p., vs saline (P=0.001)",increased
same,lymphocytes (% LYM),"Female C57BL/6J mice; 5x4 mg/kg i.p., vs saline (p<0.0001)",decreased
same,monocytes (% MON),"Female C57BL/6J mice; 5x4 mg/kg i.p., vs saline (p=0.0187)",increased
same,lymphocytes (% WBC),"Female C57BL/6J mice; 5xmg/kg i.v., compared to saline vehicle",reduced
same,granulocytes (% WBC),"Female C57BL/6J mice; 5xmg/kg i.v., compared to saline vehicle (p<0.0001)",increased
same,RBC parameters,"Female C57BL/6J mice; five i.v. injections on alternating days, between treatment groups",No changes
same,plateletcrit,"Female C57BL/6J mice; single i.p. 4 mg/kg, vs saline",significant reductions
same,mean corpuscular hemoglobin,"Female C57BL/6J mice; single i.p. 4 mg/kg, vs saline (p=0.002)",significant reductions
same,total platelet count,"Female C57BL/6J mice; single i.p. 4 mg/kg, vs saline (p=0.0251)",significant reductions
same,IC50,"HepG2; Homo sapiens, HepG2, 72 h, read-out: Viability IC50, HepG2, hepatoblastoma",24.9 nM
same,IC50,"HepG2; read-out: Viability IC50, HepG2, hepatoblastoma, 72 hours",24.9 nM
same,Rad51 mRNA expression,Rad51,unable to detect significant inhibition
same,IC50,TC-71,9.3 nM
same,"ALT and AST elevations, increase in geometric mean",[1],greater than 13 fold
same,treated patients who developed hepatotoxicity,[1],10/12
same,IC50,SK-ES-1,11.9 nM
same,IC50,HEK293.T,90.4 nM
same,patients with reversible grade 4 ALT/AST elevation,"[2]; dose escalation, single-agent therapy",2/8 and 2 out of 8
same,serum level reached,"[2]; level hypothesized to inhibit EWS:Fli1 activity, not reached before adverse effects",< 50 nM
same,NR0B1 protein expression,NR0B1,significantly suppressed
